Row | melting point [°C] | Compound
1 | 119 | CCN(CC)c1ccc(C(=NCCO[N+](=O)[O-])NC#N)cn1
2 | 277 to 281 | CCCn1cc2c(C3C(=O)Nc4ccc(Br)cc43)nc(NCc3cccnc3)nc2n1 (centres undefined)
3 | 112 to 114 | CCCCCCCCCCCC(=O)Oc1ccc2nc(S(N)(=O)=O)sc2c1
4 | 276 to 278 | O=C(NCc1ncc[nH]1)c1[nH]c2ccc(Cl)cc2c1S(=O)(=O)c1ccccc1
5 | 121 to 124 | CC(C)=CCNc1ncnc2c1nc(N)n2C1OC(CO)C(O)C1O (centres undefined)
6 | 196 to 201 | O=C(C=Cc1cc(O)c(O)c(C(F)(F)F)c1)c1ccccc1
7 | 110 to 115 | COC(=O)c1ccc(C#CC(C)(O)c2ccc3c(c2)C(C)(C)CCC3(C)C)cc1O (centres undefined)
8 | 67 | Cn1c(C(F)(F)F)nn(-c2cc(NS(C)(=O)=O)c(C#N)cc2F)c1=O
9 | 240 | O=P1(O)Oc2ccccc2-c2cc(C(F)(F)F)ccc21
10 | 165 to 166 | CCC(CC)Nc1cc(C)nc(Cl)c1N
11 | 161 | O=c1c2ccccc2sc2cc(OCC3CO3)cc(O)c12 (centres undefined)
12 | 132 to 133 | CS(=O)(=O)c1ccccc1SCc1ccccc1
13 | 235 to 240 | CCOC(=O)Cc1c[nH]c2nc(Nc3ccc(OC(C)C)cc3)nn2c1=O
14 | 124 | CCN(CC)CCNc1ccc(N2CCOC2=O)cc1[N+](=O)[O-]
15 | 115 to 116 | CCCCC[C@H]1CC[C@H](c2ccc(-c3ccc(C=O)cc3)cc2)CC1
16 | 22 | CCCCCCCc1cnc([C@H]2CC[C@H](CCCCC)CC2)nc1
17 | 63 to 65 | O=C(NC(CCO)c1ccccc1Br)c1c(F)cccc1F (centres undefined)
18 | 174 | CCC(=O)C1=C(O)CC(c2c(C)cc(C)c([N+](=O)[O-])c2C)CC1=O (centres undefined)
19 | 153 to 154 | CCC[C@H](N[C@@H](C)C(=O)O)C(=O)OCC
20 | 267 to 270 | O=[N+]([O-])c1ccc2ncnc(Nc3cccc(Br)c3)c2c1
21 | 188 to 190 | NCCN1CCN(CC(=O)N2c3ccccc3C(=O)Nc3cccnc32)CC1
22 | 265 to 266 | COc1ccc2c(ccc3nc(C(=O)O)cn32)c1
23 | 104 to 107 | CC(C)(C)C(O)C(CC1CCCCC1)n1cncn1 (centres undefined)
24 | 142 to 145 | COC(=O)C1=C(CCc2cccs2)NC(CC(=O)N2CCN(C)CC2)=C(C(=O)OC)C1c1c(Cl)cccc1Cl (centres undefined)

Row | melting point [°C] | Compound
25 | 166 to 168 | O=C(O)c1cc(C(F)(F)F)cc([N+](=O)[O-])c1O
26 | 123 to 125 | CCOP(=O)(OCC)c1c(-c2c(OC)ccc3ccccc23)cc2c(c1-c1ccccc1)COC2
27 | 338 to 340 | Cc1ncc(-c2ccc3[nH]c4c(cc(-c5ccc(Cl)cc5Cl)c(=O)n4C)c3c2)o1
28 | 154 to 156 | Cc1cc(S(=O)(=O)c2ccc([N+](=O)[O-])cc2)cc(Br)n1
29 | 77.5 to 78 | C=CCNC(=O)C(C)N (centres undefined)
30 | 56 | Cc1cnc2c(S(=O)(=O)N[C@@H](CCCc3cn(C(c4ccccc4)(c4ccccc4)c4ccccc4)cn3)C(=O)OC(C)(C)C)cccc2c1
31 | 35 to 36 | CCCSc1cc(OCc2ccc(Cl)cc2)ccc1C
32 | 184 to 185 | N#Cc1cc(-n2ccc(-c3ccc(F)cc3)n2)cc(S(N)(=O)=O)c1
33 | 138 to 142 | CCCCCCCCCCCCCCCCCCCC(=O)Nc1ccn(C2OC(CO)C(O)C2O)c(=O)n1 (centres undefined)
34 | 126 to 128 | N#Cc1ccc(Sc2cccc3cnccc23)c(Cl)c1
35 | 160 | OC1CSC(Oc2cccc(-c3cccnc3F)c2)C(O)C1O (centres undefined)
36 | 89 | COc1cc(C)c(C(=O)c2c(Cl)cccc2Cl)cc1Oc1ccccc1
37 | 129 to 131 | C=C(C)C(=O)Oc1ccc(NS(C)(=O)=O)cc1
38 | 89 to 91 | CC=CCSc1cc(C(=O)O)cc(S(N)(=O)=O)c1-c1ccccc1
39 | 229 to 233 | Cc1cccc(-c2n[nH]cc2-c2ccc(F)c(-c3c[nH]cn3)c2)n1
40 | 126 to 127 | Cc1c(NC(=O)CC(C)(C)C)cc2c(c1C)OC(C)(C)C2c1ccco1 (centres undefined)
41 | 190 | Cc1cccc(NC(=O)NCC(=O)N(CC(=O)N2CCc3ccccc32)c2ccccc2)c1
42 | 109 to 110 | CN(CCNC(=O)Cc1ccc(OCc2ccc(-c3ccccc3)cc2)cc1)C(=O)OC(C)(C)C
43 | 233 to 234 | COc1cc2nc(N)nc(-c3ccc(O)c(Br)c3)c2cc1OC
44 | 419 | c1ccc(C2=c3cc4c(cc3Oc3ccccc32)=C(c2ccccc2)c2ccccc2O4)cc1
45 | 95 to 96 | Brc1cnc(Br)c2ccccc12
46 | 102 to 103 | CN1CCN(C2CC(=O)c3ccc(F)cc32)CC1 (centres undefined)
47 | 267 to 268 | O=C1Nc2ccc(Br)cc2/C1=C/c1ccc[nH]1
48 | 169 to 170 | CN1C(=N)N(c2ccccc2)CC1=O

Row | melting point [°C] | Compound
49 | 183 to 188 | Cn1cc(CN2CCN(CCOc3ccc(C=C4SC(=O)NC4=O)cc3)CC2)c2ccccc21
50 | 171 to 172 | COC(=C1C2CC3CC1CC(O)(C3)C2)c1cccc(O)c1
51 | 84 to 88 | Cc1c(C)c(O)c(CCC(C)(O)COc2ccc(CC3SC(=O)NC3=O)cc2)c(C)c1O (centres undefined)
52 | 143 to 145 | COc1ccc(C(C#Cc2ccccc2)CNC(=O)C(F)(F)F)cc1OC1CCCC1 (racemic)
53 | 110 to 112 | Nc1c(-c2ccccc2)sc2ccccc12
54 | 240 | O=C(NN=Cc1ccnc2ccccc12)c1ccc(C(F)(F)F)cc1
55 | 168 to 171 | CN1CCc2cc(Cl)c(O)cc2C1C1(c2ccc(Cl)cc2)CCC1 (centres undefined)
56 | 151 | ON=C(c1cccc2nc(N[C@@H]3CCc4ccccc43)ccc12)C1CC1
57 | 216 | CCCC1=C(C#N)C(c2ccccc2[N+](=O)[O-])c2c[nH]nc2N1 (centres undefined)
58 | 102 to 104 | CC(=O)c1cccc(Oc2ncccc2C(=O)NCc2ccc([C@H](C)O)cc2)c1
59 | 94 to 97 | N#Cc1cn(CO)cc1-c1ccccc1Cl
60 | 232 | COc1cc(-c2nccn2N=Cc2ccc(N(C)C)cc2)cc(OC)c1OC
61 | 287 to 293 | Oc1ccc(Cc2cnc3c(-c4cc(-c5ccccc5)cs4)cnn3c2O)cc1
62 | 46 to 48 | C=C(C)C(=O)NCCC#N
63 | 180 to 181 | CCN(CC)c1cc(C)nc(Oc2c(C)cc(C)cc2C)c1C
64 | 119 to 121 | Cn1cc(-c2ccccc2)c(=O)c(-c2cccc(OC(F)(F)C(F)F)c2)c1
65 | 65 to 66 | CCCCCCCCC1C(=O)NC(=O)N1CCCCCCC(=O)O (centres undefined)
66 | 178 to 180 | CC1=NN(c2ccccc2)C(=O)C1C=O (centres undefined)
67 | 273 to 274 | Cc1nc(-c2ccc(N3CCOCC3)cc2)sc1-c1ccnc(Nc2ccc(N3CCOCC3)cc2)n1
68 | 85 to 86 | CCc1cccc2c(/C=C/C(=O)N3CCCCC3)cc(OC)c(O)c12
69 | 137 to 139 | Nc1cccc(Oc2ccc(C(c3ccc(Oc4cccc(N)c4)cc3)(C(F)(F)F)C(F)(F)F)cc2)c1
70 | 142 to 145 | CCCOc1ccc(-c2cc(C)cn2-c2ccc(S(N)(=O)=O)cc2)cc1
71 | 81 to 83 | CC(=O)C(=CN(C)C)C(=O)c1ccccc1
72 | 221 | N=C(NO)c1ccc(-c2ccc([N+](=O)[O-])c(C(F)(F)F)c2)o1

Row | melting point [°C] | Compound
73 | 104 to 107 | O=C(NCCN1CCCCC1)c1ccc(-c2ccc3nnn(Cc4ccc5ncccc5c4)c3n2)cc1
74 | 186 | Clc1ccc(NN=Cc2cccnc2)cc1
75 | 190 to 194 | COc1ccc(C=Cc2cc3cc(Br)ccc3o2)cc1
76 | 309 to 310 | Cn1cnc(S(=O)(=O)O)c1Cl
77 | 280 to 284 | CC(C)CCOC(=O)c1cc2c([nH]c3ccccc32)c(-c2ccc3c(n2)C(=O)C(NC(=O)CCl)=CC3=O)n1
78 | 120 to 125 | CC1SC(c2cccnc2)N(C2CCCCC2)C1=O (centres undefined)
79 | 167 to 171 | O=C(O)c1ccc2cc(OCCCCCCc3cccc(O)c3O)ccc2c1
80 | 257 | Clc1ccc2c(c1)Cc1ccc(-c3nnn[nH]3)cc1S2
81 | 130 | COC(=O)Cc1cc(NC(=O)OC(C)(C)C)c(N)cc1C#Cc1ccccc1
82 | 245 to 246 | Nc1nc2cc(Cl)c(Cl)cc2n1Cc1ccccc1
83 | 33 to 34 | CCOC(=O)C(=NNc1ccccc1CC)C(=O)OCC
84 | 54 to 55 | CC(C)(C)C(=O)C(F)n1cncn1 (centres undefined)
85 | 133 to 134 | CC(=C1SCCCS1)c1cccc(OCC(=O)O)c1
86 | 156 to 157 | CCOC(=O)c1cc2ccc(Cl)c(N(C)S(=O)(=O)c3cccs3)c2[nH]1
87 | 124 to 125 | CC1(C2CCCC2)Cc2cc(OCCBr)c(Cl)c(Cl)c2C1=O (centres undefined)
88 | 153 to 157 | O=C(NCCN1CCCC1)c1ccc(OCc2ccc(-c3ccccc3)cc2)nc1
89 | 42 to 45 | CCOC(=O)CC(=O)Nc1cc(F)cc(F)c1
90 | 167 to 169 | COc1cc2c(cc1OC)CCCC(C(=O)N1CCN(Cc3cc(OC)c(OC)c(OC)c3)CC1CN(C)C)=C2 (centres undefined)
91 | 126 | Oc1ccccc1C=NCCN=Cc1ccccc1O
92 | 102 | COc1c(F)cc(F)c(C(N)=O)c1F
93 | 128 to 129 | COC(=O)C(=C(C)NCC(O)CO)c1ncc([N+](=O)[O-])cc1[N+](=O)[O-] (centres undefined)
94 | 262 to 263 | O=C(Nc1c[nH]nc1C(=O)NC1CCCCC1)c1ccccn1
95 | 250 to 251 | COc1ccc2c(c1Br)C(=O)C(=O)N2
96 | 115 | O=C1CCCCCN1C(=O)N1CCCCCC1=O

Row | Compound | melting point [°C]
97 | CC1N=C(c2ccccn2)c2cc(Br)ccc2NC1=O (centres undefined) | 227 to 229
98 | Cc1cnc2n1-c1sc(CCCO)cc1C(c1ccccc1Cl)=NC2 | 131 to 134
99 | S=C1CN=C(c2ccccc2)c2ccsc2N1 | 208 to 210
100 | N#Cc1ccc(OC2CCOC2=O)cc1C(F)(F)F (centres undefined) | 107 to 108
101 | CN(C)CC(c1ccccc1)c1nnc2n1-c1ccc(I)cc1C(c1ccccc1)=NC2 (centres undefined) | 192 to 194
102 | Cc1nc2sccn2c(=O)c1CCN1CCC2Nc3ccccc3C2C1 (centres undefined) | 152
103 | CC(C)(C)NC(=O)OC1CCOC1=O (centres undefined) | 104 to 106
104 | CN1CCC(c2c[nH]c3ccc([N+](=O)[O-])cc23)C(F)C1 (centres undefined) | 105 to 107

Source: a melting point compilation (Tetko et al.; mined from patent text by program, amines drawn as free bases though some values may be those of a salt)
